The record followed here is paper PMC3726004 (Bioorganic & medicinal chemistry, 2009).

In assay [1] the target is T1, α4β2* nAChRs (Rattus norvegicus, UniProt P09483+P12390). Kind of assay: [3H]nicotine. The format is binding.
The target of assay [2] is T1, α4β2* nAChRs. Kind of assay: nicotine-evoked 86Rb+ efflux from rat thalamic synaptosomes. The format is biochemical.
Assay [3] deals with serotonin transporter (SERT) (Rattus norvegicus, UniProt P31652). Kind of assay: [3H]5-HT uptake into rat hippocampal synaptosomes. It is filed as biochemical.
For assay [4], the target named is VMAT2 (Rattus norvegicus, UniProt Q01827). Kind of assay: [3H]MTBZ or [3H]DTBZ binding to rat synaptic vesicle membranes.
Sequence of VMAT2 (Q01827 whole entry): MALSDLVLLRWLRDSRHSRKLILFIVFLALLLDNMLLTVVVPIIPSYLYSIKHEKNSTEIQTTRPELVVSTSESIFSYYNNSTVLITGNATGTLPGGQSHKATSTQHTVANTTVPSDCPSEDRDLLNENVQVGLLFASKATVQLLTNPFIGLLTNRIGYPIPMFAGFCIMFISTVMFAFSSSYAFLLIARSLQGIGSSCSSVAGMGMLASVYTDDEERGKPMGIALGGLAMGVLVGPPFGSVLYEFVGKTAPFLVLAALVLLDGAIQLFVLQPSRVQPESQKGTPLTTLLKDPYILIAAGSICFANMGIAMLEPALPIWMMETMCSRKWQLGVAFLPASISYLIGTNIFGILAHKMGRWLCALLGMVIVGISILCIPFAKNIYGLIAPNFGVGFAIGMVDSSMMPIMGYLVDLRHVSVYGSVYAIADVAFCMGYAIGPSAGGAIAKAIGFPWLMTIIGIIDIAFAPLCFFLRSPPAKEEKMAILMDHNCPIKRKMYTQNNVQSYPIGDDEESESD

T1 sequence (P09483 31-630): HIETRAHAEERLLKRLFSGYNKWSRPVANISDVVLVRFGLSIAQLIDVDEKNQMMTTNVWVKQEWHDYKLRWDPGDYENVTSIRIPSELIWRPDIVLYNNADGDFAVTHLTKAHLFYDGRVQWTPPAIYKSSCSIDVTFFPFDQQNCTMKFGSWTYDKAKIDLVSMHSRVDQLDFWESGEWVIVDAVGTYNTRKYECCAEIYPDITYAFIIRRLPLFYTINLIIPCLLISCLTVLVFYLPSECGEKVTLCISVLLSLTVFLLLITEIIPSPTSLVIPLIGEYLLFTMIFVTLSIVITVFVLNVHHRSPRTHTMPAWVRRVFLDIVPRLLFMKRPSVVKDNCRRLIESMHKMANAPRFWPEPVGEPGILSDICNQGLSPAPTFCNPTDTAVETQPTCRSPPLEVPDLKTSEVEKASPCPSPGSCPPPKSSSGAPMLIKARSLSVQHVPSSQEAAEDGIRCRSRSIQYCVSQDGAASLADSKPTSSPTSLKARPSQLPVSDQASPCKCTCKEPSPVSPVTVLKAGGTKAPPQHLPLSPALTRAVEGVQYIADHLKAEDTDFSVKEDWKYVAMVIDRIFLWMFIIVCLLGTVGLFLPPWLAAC
T1 sequence (P12390 25-500): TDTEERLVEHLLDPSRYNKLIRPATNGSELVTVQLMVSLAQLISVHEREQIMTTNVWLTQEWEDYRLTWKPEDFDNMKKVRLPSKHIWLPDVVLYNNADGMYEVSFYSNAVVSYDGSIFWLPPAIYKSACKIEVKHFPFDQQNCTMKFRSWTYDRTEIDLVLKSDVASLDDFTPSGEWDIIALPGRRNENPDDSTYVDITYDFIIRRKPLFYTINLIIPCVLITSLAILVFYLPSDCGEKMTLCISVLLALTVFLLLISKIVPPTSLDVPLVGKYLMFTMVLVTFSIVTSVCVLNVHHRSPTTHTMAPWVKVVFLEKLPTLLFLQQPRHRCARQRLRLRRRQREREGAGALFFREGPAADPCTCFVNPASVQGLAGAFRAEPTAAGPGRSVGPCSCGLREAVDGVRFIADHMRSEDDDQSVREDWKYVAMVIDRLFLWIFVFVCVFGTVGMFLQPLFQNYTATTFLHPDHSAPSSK
Sequence of serotonin transporter (SERT) (P31652 whole entry): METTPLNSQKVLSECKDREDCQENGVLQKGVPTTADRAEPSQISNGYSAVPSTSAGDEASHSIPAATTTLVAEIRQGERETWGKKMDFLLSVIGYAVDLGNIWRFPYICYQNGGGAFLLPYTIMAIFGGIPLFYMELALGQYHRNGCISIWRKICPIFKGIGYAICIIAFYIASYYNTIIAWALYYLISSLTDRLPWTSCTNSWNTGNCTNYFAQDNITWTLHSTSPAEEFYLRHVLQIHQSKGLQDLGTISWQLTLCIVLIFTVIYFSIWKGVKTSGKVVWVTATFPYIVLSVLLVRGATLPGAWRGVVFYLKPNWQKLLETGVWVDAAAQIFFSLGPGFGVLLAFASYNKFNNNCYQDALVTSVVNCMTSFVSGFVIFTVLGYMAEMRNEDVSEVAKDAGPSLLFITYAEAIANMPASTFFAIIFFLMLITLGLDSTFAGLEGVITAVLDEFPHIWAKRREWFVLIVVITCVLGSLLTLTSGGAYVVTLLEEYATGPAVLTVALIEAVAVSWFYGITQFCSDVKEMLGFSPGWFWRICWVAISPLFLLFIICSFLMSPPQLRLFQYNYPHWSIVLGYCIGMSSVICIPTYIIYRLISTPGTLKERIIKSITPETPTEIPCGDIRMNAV

With `CN1C(CC(=O)c2ccccc2)CCC[C@H]1CC(OC(=O)c1ccccc1)c1ccccc1.Cl` (stereo in doubt) [Compound 2, (2S, 6S, 2R)-2-[6-(2-Benzoyloxy-2-phenylethyl)-1-methylpiperidin-2-yl]-1-phenylethanone hydrochloride], in assay [1], the “fold less potent than analog 10 in the [3H]nicotine binding assay” value was found to be 360 fold and the “fold less potent than lobeline in inhibiting [3H]nicotine binding (α4β2*)” value is 215–4800 fold. Further, the “extent of inhibition of nicotine-evoked 86Rb+ efflux” value in assay [2] is on record as “completely inhibited”.

As for `CC(=O)OC(C[C@@H]1CCCC(CC(=O)c2ccccc2)N1C)c1ccccc1.Cl` (stereo in doubt) [Compound 5, (2S, 6S, 2R)-2-[6-(2-Acetyloxy-2-phenylethyl)-1-methylpiperidin-2-yl]-1-phenylethanone hydrochloride], the “fold less potent than lobeline in inhibiting [3H]nicotine binding (α4β2*)” value in assay [1] is reported as 15 to 125 fold. Moreover, in assay [3], the “potency compared with lobeline at SERT” value is on record as “equipotent”. For the same compound, the “potency compared with lobeline at VMAT2” value in assay [4] is “equipotent”.

For the compound `CCC(=O)OC(C[C@@H]1CCCC(CC(=O)c2ccccc2)N1C)c1ccccc1.Cl` (stereo in doubt) [Compound 6, (2S, 6S, 2R)-2-[6-(2-Propionyloxy-2-phenylethyl)-1-methylpiperidin-2-yl]-1-phenylethanone hydrochloride], the “fold less potent than lobeline in inhibiting [3H]nicotine binding (α4β2*)” value in assay [1] was 15 to 125 fold.

Consider `CCCC(=O)OC(C[C@@H]1CCCC(CC(=O)c2ccccc2)N1C)c1ccccc1.Cl` (stereo in doubt) [Compound 7, (2S, 6S, 2R)-2-[6-(2-Butyryloxy-2-phenylethyl)-1-methylpiperidin-2-yl]-1-phenylethanone hydrochloride], for which, in assay [1], the “fold less potent than lobeline in inhibiting [3H]nicotine binding (α4β2*)” value lay within 15 to 125 fold.

As for `CC(C)C(=O)OC(C[C@@H]1CCCC(CC(=O)c2ccccc2)N1C)c1ccccc1.Cl` (stereo in doubt) [Compound 8, (2S, 6S, 2R)-2-[6-(2-Isobutyryloxy-2-phenylethyl)-1-methylpiperidin-2-yl]-1-phenylethanone hydrochloride], the “fold less potent than lobeline in inhibiting [3H]nicotine binding (α4β2*)” value in assay [1] is recorded as 15 to 125 fold.

Turning to `CN1C(CC(=O)c2ccccc2)CCC[C@H]1CC(OS(=O)(=O)c1ccccc1)c1ccccc1.Cl` (stereo in doubt) [Compound 10, (2S, 6S, 2R)-2-[6-(2-Benzenesulfonyloxy-2-phenylethyl)-1-methylpiperidin-2-yl]-1-phenylethanone hydrochloride], the “potency compared with lobeline at SERT” value in assay [3] is on record as “equipotent”. Moreover, in assay [4], the “potency compared with lobeline at VMAT2” value was “equipotent”. In addition, the “extent of inhibition of nicotine-evoked 86Rb+ efflux” value in assay [2] is given as “completely inhibited”.

For the compound `Cc1ccc(S(=O)(=O)OC(C[C@@H]2CCCC(CC(=O)c3ccccc3)N2C)c2ccccc2)cc1.Cl` (stereo in doubt) [Compound 11, (2S, 6S, 2R)-2-[6-(2-p-Toluenesulfonyloxy-2-phenylethyl)-1-methylpiperidin-2-yl]-1-phenylethanone hydrochloride], the “potency compared with lobeline at α4β2* nAChRs ([3H]nicotine binding)” value in assay [1] is “equipotent”.

As to `COc1ccc(C(=O)O[C@@H](C[C@@H]2CCC[C@H](CC(=O)c3ccccc3)N2C)c2ccccc2)cc1.Cl` [Compound 4, (2S, 6S, 2R)-2-[6-(2-Anisoyloxy-2-phenylethyl)-1-methylpiperidin-2-yl]-1-phenylethanone hydrochloride], in assay [1], the “fold less potent than lobeline in inhibiting [3H]nicotine binding (α4β2*)” value is 215–4800 fold. Further, the “potency compared with lobeline at VMAT2” value in assay [4] is recorded as “equipotent”.

On to `CN1[C@@H](CC(=O)c2ccccc2)CCC[C@H]1C[C@H](OC(=O)c1cccs1)c1ccccc1.Cl` [Compound 9, (2S, 6S, 2R)-2-[6-(2-(2-Thiophen)-carboxyl-2-phenylethyl)-1-methylpiperidin-2-yl]-1-phenylethanone hydrochloride], for which the “fold less potent than lobeline in inhibiting [3H]nicotine binding (α4β2*)” value in assay [1] was 215–4800 fold.
